Measured values from patent US20140249172A1 (3B Pharmaceuticals, Inc., priority 2012, published 2014).
Where “and” joins values, the source holds several entries; their conditions need not be identical. Equal entries are not always repeated. Structures can show the parent of a compound that is named as a salt.

Tests used:
[1] = 4.5 mg/day for 12 weeks; cited from earlier work
[2] = Blood levels of free naltrexone and free 6-beta-naltrexol following intranasal administration; type: in vivo, human; settings: for Naltrexone-free blood level / Blood Level 6-beta-Naltrexol-free: individual patients 1-8
[3] = cited from earlier work
[4] = oral, 0.4 mg or 1.0 mg; 90 patients; cited from earlier work
[5] = oral 0.002 mg/day with methadone; one patient; cited from earlier work
[6] = in vivo, po; cited from earlier work
[7] = cited from earlier work; remark: listed apart in the source
[8] = 0.5 mg/day oral daily for 4 weeks; 42 IBS patients; cited from earlier work
[9] = Stability of Naltrexone HCl aqueous solution: potency/purity by USP <621> HPLC

**Q.** With O=C1CC[C@@]2(O)[C@H]3Cc4ccc(O)c5c4[C@@]2(CCN3CC2CC2)[C@H]1O5 [Naltrexone, naltrexone] as the molecule, how does the “CDAI scores, quality of life indicators, remission rates, inflammatory markers in serum” value [1] read?
**A.** Statistically significant improvements

**Q.** What about the concentration at 15 min ([2]; both sexes, human, in vivo, 2 mg, average of 8 subjects, 15 min after intranasal administration, read-out: Naltrexone-free blood level, Avg.) of the same molecule?
**A.** 3.52 ng/mL

**Q.** What about the concentration at 30 min ([2]; both sexes, human, in vivo, 2 mg, average of 8 subjects, 30 min, read-out: Naltrexone-free blood level, Avg.) of the same molecule?
**A.** 3.66 ng/mL

**Q.** And the concentration at 60 min ([2]; both sexes, human, in vivo, 2 mg, average of 8 subjects, 60 min, read-out: Naltrexone-free blood level, Avg.)?
**A.** 3.24 ng/mL

**Q.** What about the concentration at 120 min ([2]; both sexes, human, in vivo, 2 mg, average of 8 subjects, 120 min, read-out: Naltrexone-free blood level, Avg.) of the same molecule?
**A.** 1.94 ng/mL

**Q.** And the Naltrexone-free blood level ([2]; 15 min after intranasal 1 mL of Example 1 composition (2 mg/mL))?
**A.** 5.2 ng/mL and 1.4 ng/mL and 4.7 ng/mL and 4.6 ng/mL (2×) and 1.6 ng/mL and 2.1 ng/mL and 4 ng/mL

**Q.** And the Naltrexone-free blood level ([2]; 30 min after intranasal 1 mL of Example 1 composition)?
**A.** 5.1 ng/mL and 1.7 ng/mL and 4.7 ng/mL and 3.8 ng/mL and 2.3 ng/mL and 5.5 ng/mL and 2.8 ng/mL and 3.4 ng/mL

**Q.** What about the Naltrexone-free blood level ([2]; 60 min after intranasal 1 mL of Example 1 composition) of the same molecule?
**A.** 4.6 ng/mL and 1.8 ng/mL (2×) and 4.5 ng/mL (2×) and 3.2 ng/mL and 2.6 ng/mL and 2.9 ng/mL

**Q.** What about the Naltrexone-free blood level ([2]; 120 min after intranasal 1 mL of Example 1 composition) of the same molecule?
**A.** 2.8 ng/mL and 1.1 ng/mL and 2.9 ng/mL and 2.1 ng/mL (2×) and 1.3 ng/mL and 1.4 ng/mL and 1.8 ng/mL

**Q.** What about the oral bioavailability ([3]; oral administration, significant first pass metabolism) of the same molecule?
**A.** up to 40%

**Q.** And the “time to peak plasma concentration” value ([3]; single oral dose)?
**A.** 1 to 2 h

**Q.** What about the “analgesic effect compared with placebo” value [4] of the same molecule?
**A.** significant analgesic effects

**Q.** And the pain relief [5]?
**A.** improved pain relief

**Q.** And the “reduction of fibromyalgia symptoms over placebo” value [6]?
**A.** greater than 30%

**Q.** And the “solubility in water (in words)” value ([7]; in the form of a salt)?
**A.** freely soluble

**Q.** And the “patients with improved global assessment” value [8]?
**A.** 76%

**Q.** What does the source list for O=C1CC[C@@]2(O)[C@H]3Cc4ccc(O)c5c4[C@@]2(CCN3CC2CC2)[C@H]1O5 [Naltrexone HCl, Naltrexone hydrochloride]?
**A.** Potency/Purity ([9]; Stability Test A, 2.00 mg/mL in sterile water, room temperature, ambient light, day 5): 99.89%; Potency/Purity ([9]; Stability Test A, day 14): 104.12%; Potency/Purity ([9]; Stability Test A, day 31): 95.94%; Potency/Purity ([9]; Stability Test A, day 62): 107.00%; Potency/Purity ([9]; Stability Test A, day 90): 107.09%; Potency/Purity ([9]; Stability Test B, 2.00 mg/mL in sterile water, room temperature, ambient light, day 6): 102.04%; Potency/Purity ([9]; Stability Test B, day 15): 102.11%; Potency/Purity ([9]; Stability Test B, day 33): 101.05%; Potency/Purity ([9]; Stability Test B, day 61): 98.49%; Potency/Purity ([9]; Stability Test B, day 90): 99.24%; Potency/Purity ([9]; Stability Test B, day 121): 98.70%; Potency/Purity ([9]; Stability Test B, day 152): 98.56%; Potency/Purity ([9]; Stability Test B, day 180): 100.44%; solubility in water [7]: about 100 mg/mL

**Q.** With Oc1ccc2c3c1O[C@H]1[C@H](O)CC[C@@]4(O)[C@@H](C2)N(CC2CC2)CC[C@]314 [6-beta-Naltrexol, 6-beta-naltrexol] as the molecule, how does the “Blood Level 6-beta-Naltrexol-free, Avg.” value ([2]; average of 8 subjects, 15 min) read?
**A.** 0.138 ng/mL

**Q.** And the “Blood Level 6-beta-Naltrexol-free, Avg.” value ([2]; average of 8 subjects, 30 min)?
**A.** 0.900 ng/mL

**Q.** And the “Blood Level 6-beta-Naltrexol-free, Avg.” value ([2]; average of 8 subjects, 60 min)?
**A.** 1.588 ng/mL

**Q.** And the “Blood Level 6-beta-Naltrexol-free, Avg.” value ([2]; average of 8 subjects, 120 min)?
**A.** 2.438 ng/mL

**Q.** And the “Blood Level 6-beta-Naltrexol-free” value ([2]; 15 min after intranasal 1 mL of Example 1 composition)?
**A.** 0 ng/mL (7×) and 1.1 ng/mL

**Q.** And the “Blood Level 6-beta-Naltrexol-free” value ([2]; 30 min)?
**A.** 0 ng/mL (3×) and 1 ng/mL (2×) and 1.5 ng/mL and 1.9 ng/mL and 1.8 ng/mL

**Q.** What about the “Blood Level 6-beta-Naltrexol-free” value ([2]; 60 min) of the same molecule?
**A.** 1.1 ng/mL and 1.9 ng/mL and 0 ng/mL (2×) and 1.2 ng/mL and 1.6 ng/mL and 2.9 ng/mL and 4 ng/mL

**Q.** And the “Blood Level 6-beta-Naltrexol-free” value ([2]; 120 min)?
**A.** 2.1 ng/mL (2×) and 2.7 ng/mL and 2 ng/mL and 1.8 ng/mL and 1 ng/mL and 3.5 ng/mL and 4.3 ng/mL
